The target in assay [1] is T1, p53-MDM2 interaction (human MDM2 protein, amino acids 2-188) (Homo sapiens, UniProt Q00987).
T1 construct: human MDM2 protein (amino acids 2-188); made in house
The assay is described as follows: p53-MDM2 Assay 1: TR-FRET inhibition of p53-MDM2 interaction. In kind it is binding. The conditions noted are these: 1.25 nM MDM2-biotinylated, 10 nM Cy5-p53 peptide. As for the experimental part:
(§1) Time Resolved Fluorescence Energy Transfer (TR-FRET) Assay
(§2) The inhibition of p53-MDM2 and p53-MDM4 interactions is measured by time resolved fluorescence energy transfer (TR-FRET). Fluorescence energy transfer (or Foerster resonance energy transfer) describes an energy transfer between donor and acceptor fluorescent molecules. For this assay, human MDM2 protein (amino acids 2-188) and human MDM4 protein (amino acids 2-185), tagged with a C-terminal biotin moiety, are used in combination with a Europium labeled streptavidin (Perkin Elmer, Inc., Waltham, Mass., USA) serving as the donor fluorophore. The p53 derived, Cy5 labeled peptide Cy5-TFSDLWKLL (p53 aa18-26) is the energy acceptor. Upon excitation of the donor molecule at 340 nm, binding interaction between MDM2 or MDM4 and the p53 peptide induces energy transfer and enhanced response at the acceptor emission wavelength at 665 nm. Disruption of the formation of the p53-MDM2 or p53-MDM4 complex due to an inhibitor molecule binding to the p53 binding site of MDM2 or MDM4 results in increased donor emission at 620 nm. The ratiometric FRET assay readout is calculated from the raw data of the two distinct fluorescence signals measured in time resolved mode (fluorescence 665 nm/fluorescence 620 nm×1000).
(§3) After addition of 1.25 nM MDM2-biotinylated or 2.5 nM MDM4-biotinylated (internal preparations, both MDM2 and MDM4 are biotinylated at the C-terminal of the peptide construct), and 0.625 nM Europium labeled streptavidin (Perkin Elmer), the solution is pre-incubated for 15 minutes at room temperature, then 10 nM Cy5-p53 peptide (internal preparation, the Cy5 dye is directly bound to the N-terminal part of p53 peptide construct) is added before an incubation at room temperature for 15 minutes prior to reading the plate. For measurement of samples, a Victor II microplate reader (Perkin Elmer) is used with the following settings: Excitation 340 nm, Emission Donor 620 nm and Emission Acceptor 665 nm. IC50 values are calculated by curve fitting using XLfit. If not specified, reagents are purchased from Sigma-Aldrich Chemie GmBH, Buchs, Switzerland.
(§4) This assay was used to evaluate compounds displaying inhibition of p53-MDM2 interaction and p53-MDM4 interaction at IC50s of 0.005 to 50 μM (p53-MDM2 Assay 1 and p53-MDM4 Assay 1, respectively). For selected compounds displaying IC50s between […] on MDM2, a slightly modified assay is used with the following adaptations: 0.1 nM MDM2, 0.1 nM Europium labeled streptavidin and Tecan genios Pro is used as a microplate reader for the fluorescence measurements (p53-MDM2 Assay 2).

Assay [2] deals with T2, p53-MDM4 interaction (human MDM4 protein, amino acids 2-185) (Homo sapiens, UniProt O15151).
T2 construct: human MDM4 protein (amino acids 2-185); made in house
T2 sequence (O15151 2-185): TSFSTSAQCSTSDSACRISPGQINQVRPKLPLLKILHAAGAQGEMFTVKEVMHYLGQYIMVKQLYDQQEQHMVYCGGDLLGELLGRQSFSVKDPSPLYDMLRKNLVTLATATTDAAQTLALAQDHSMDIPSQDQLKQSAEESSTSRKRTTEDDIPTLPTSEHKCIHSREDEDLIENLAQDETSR
The assay is described as follows: p53-MDM4 Assay 1: TR-FRET inhibition of p53-MDM4 interaction. The assay is classed as binding. The conditions noted are these: 2.5 nM MDM4-biotinylated, 10 nM Cy5-p53 peptide. As for the experimental part: as §1, §2, §3, §4
For orientation: Time-resolved FRET reads energy transfer from a long-lived donor to a nearby acceptor.

T1 sequence (Q00987 2-188): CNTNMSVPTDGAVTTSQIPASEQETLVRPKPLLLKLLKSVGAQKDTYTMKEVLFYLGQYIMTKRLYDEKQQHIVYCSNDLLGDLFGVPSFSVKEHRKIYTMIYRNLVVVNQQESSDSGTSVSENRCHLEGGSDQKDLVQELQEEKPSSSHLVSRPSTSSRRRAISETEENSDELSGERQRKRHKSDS

For `Cc1cc(Cl)ccc1C1c2c(nn(Cc3ccccc3)c2C(C)C)NC(=O)N1c1cccc(Cl)c1F` (stereo not drawn) [Example 1, 2-Benzyl-5-(3-chloro-2-fluoro-phenyl)-4-(4-chloro-2-methyl-phenyl)-3-isopropyl-2,4,5,7-tetrahydro-pyrazolo[3,4-d]pyrimidin-6-one], the IC50 in assay [1] was found to be 1.8 nM; in assay [2] it was 34700 nM.
Consider `Cc1cc(Cl)ccc1[C@H]1c2c(nn(Cc3ccccc3)c2C(C)C)NC(=O)N1c1cccc(Cl)c1F` [Example 2, (S)-2-Benzyl-5-(3-chloro-2-fluorophenyl)-4-(4-chloro-2-methylphenyl)-3-isopropyl-4,5-dihydro-2H-pyrazolo[3,4-d]pyrimidin-6(7H)-one], for which the values for the 50% inhibitory concentration (IC50) in assay [1] and in assay [2] were 1.8 nM and 18500 nM, respectively.
For `COc1ccccc1-n1nc2c(c1C(C)C)C(c1ccc(Cl)cc1C)N(c1cc(Cl)ccc1OCCN(C)C)C(=O)N2` (stereo not drawn) [Example 12, 5-[5-Chloro-2-(2-dimethylamino-ethoxy)-phenyl]-4-(4-chloro-2-methyl-phenyl)-3-isopropyl-2-(2-methoxy-phenyl)-2,4,5,7-tetrahydro-pyrazolo[3,4-d]pyrimidin-6-one], the IC50 in assay [1] was 2.5 nM; in assay [2], 2360 nM.
With `COc1ccccc1-n1nc2c(c1C(C)C)[C@@H](c1ccc(Cl)cc1C)N(c1cccc(Cl)c1F)C(=O)N2` [Example 7, (R)-5-(3-Chloro-2-fluoro-phenyl)-4-(4-chloro-2-methyl-phenyl)-3-isopropyl-2-(2-methoxy-phenyl)-2,4,5,7-tetrahydro-pyrazolo[3,4-d]pyrimidin-6-one], the IC50 in assay [1] came to 62.2 nM; in assay [2], 19100 nM.
The matching figures for `COc1ccccc1-n1nc2c(c1C(C)C)C(c1ccc(Cl)cc1)N(c1cc(Cl)ccc1OCCN(C)C)C(=O)N2` (stereo not drawn) [Example 17, 5-(5-Chloro-2-(3-(dimethylamino)ethoxy)phenyl)-4-(4-chlorophenyl)-3-isopropyl-2-(2-methoxyphenyl)-4,5-dihydro-2H-pyrazolo[3,4-d]pyrimidin-6(7H)-one]: 6.6 nM and 11600 nM.
In the case of `COc1ccccc1-n1nc2c(c1C(C)C)C(c1ccc(Cl)cc1)N(c1ccc(=O)n(C)c1)C(=O)N2` (stereo not drawn) [Example 20, 4-(4-Chloro-phenyl)-3-isopropyl-2-(2-methoxy-phenyl)-5-(1-methyl-6-oxo-1,6-dihydro-pyridin-3-yl)-2,4,5,7-tetrahydro-pyrazolo[3,4-d]pyrimidin-6-one], the IC50 was 4.8 nM in assay [1] and 4730 nM in assay [2].
Take `COCCn1cc(N2C(=O)Nc3nn(-c4ccccc4OC)c(C(C)C)c3C2c2ccc(Cl)cc2)cc(Cl)c1=O` (stereo not drawn) [Example 16, 5-[5-Chloro-1-(2-methoxy-ethyl)-6-oxo-1,6-dihydro-pyridin-3-yl]-4-(4-chloro-phenyl)-3-isopropyl-2-(2-methoxy-phenyl)-2,4,5,7-tetrahydro-pyrazolo[3,4-d]pyrimidin-6-one]: the values for the IC50 in assay [1] and in assay [2] were 5.6 nM and 8570 nM, respectively.
Taken in the same sequence, the figures for `Cc1cc(Cl)ccc1C1c2c(nn(CCN(C)C)c2C(C)C)NC(=O)N1c1cccc(Cl)c1F` (stereo not drawn) [Example 9, 5-(3-chloro-2-fluoro-phenyl)-4-(4-chloro-2-methyl-phenyl)-2-(2-dimethylamino-ethyl)-3-isopropyl-2,4,5,7-tetrahydro-pyrazolo[3,4-d]pyrimidin-6-one] were 16.7 nM and 41700 nM.
Regarding `Cc1cc(Cl)ccc1[C@@H]1c2c(nn(Cc3ccccc3)c2C(C)C)NC(=O)N1c1cccc(Cl)c1F` [Example 3, (R)-2-Benzyl-5-(3-chloro-2-fluorophenyl)-4-(4-chloro-2-methylphenyl)-3-isopropyl-4,5-dihydro-2H-pyrazolo[3,4-d]pyrimidin-6(7H)-one], the IC50 in assay [1] stood at 146 nM; in assay [2], 39700 nM.

In general, IC50 refers to the concentration needed to halve the response being measured.

The values above are taken from patent US9556180B2, “Pyrazolo[3,4-d]pyrimidinone compounds as inhibitors of the P53/MDM2 interaction” (Novartis AG, priority 2013, dated 2017).
